# System: E. coli MG1655::pCECNde/4978 DAT/SEQ ID NO. 42
# Experiment: R,R monatin excreted by E. coli with D-amino acid treatment
# Assay type: cell-based, Escherichia coli
# Details: 5 mM D-amino acid treatment added 3 hours following induction
# Description: For inoculum preparation, the E. coli MG1655 : : pCECNde/4978 DAT/SEQ ID NO. 42 were grown overnight at 37° C. with shaking at 250 rpm in Luria-Bertani (“LB”) medium with 25 μg/mL chloramphenicol. For the experimental treatments, Trp-1+glucose medium, a minimal medium that has been used for increased production of tryptophan in E. coli cells (Zeman et al. Folia Microbiol. 35:200-4, 1990), was prepared as follows. To 800 mL nanopure water the following reagents were added: 2 g (NH4)2SO4, 13.6 g KH2PO4. The pH was adjusted to 7.0, the volume was increased to 948 mL, and the medium was autoclaved. Following sterilization, 0.2 g MgSO4.7H2O, 0.01 g CaCl2.2H2O, and 0.5 mg FeSO4.7H2O were added to the medium in a 1.8 mL volume followed by addition of 0.2 mL of Neidhardt's micronutrient solution (Neidhardt F. C., Bloch P. L., and Smith D. F., 1974. Culture medium for Enterobacteria. J. Bacteriol. 119: 736-746). Neidhardt's medium includes (per liter): 0.18 g (NH4)6(MO7)24.4H2O, 1.24 g H3BO3, 0.36 g CoCl2.6H2O, 0.12 g CuSO4 (anhydrous), 0.8 g MnCl2.4H2O, and 0.14 g ZnSO4.7H2O. A 50% glucose solution was prepared separately and sterile-filtered. […]
# The monatin from the 48 hour samples was concentrated via a solid phase extraction (“SPE”) column (see Example 27). Then, the R,R and S,S stereoisomers were analyzed by the method of Example 13.
row,Compound,"48 hour Monatin/dry cell wt., Total Monatin [mg/g]"
1,C[C@@H](N)C(=O)O [D-alanine],0.33
2,N[C@H](CCC(=O)O)C(=O)O [D-glutamate],0.47
